Patent US12144792B2, “Therapeutic agents for neurodegenerative diseases” (priority 2016, dated 2024)

What was measured:
Type in all cases: in vivo, human
[1] = system: patients with downbeat nystagmus; assay: Case studies, clinical examination (visual acuity, posturography)
Source text: The patient was diagnosed with downbeat nystagmus: the patient was severely impaired by blurred vision (oscillopsia) due to the nystagmus, and experienced difficulties while reading and writing. The patient's visual acuity was: right 0.75, left 0.67, binocular 0.83, and the downbeat nystagmus was documented by video-oculography. […] […] […] The patient was able to suppress the nystagmus by visual fixation. In addition, the patient's spatial orientation was improved.

[2] = system: patient with frontotemporal dementia with parkinsonism; assay: Case study, clinical examination; conditions: Ex. 9, frontotemporal dementia with parkinsonism; L-Dopa and Ropinirol together
Source text: After approximately one month of acetyl-leucine treatment, medication was stopped and the patient was re-examined 13 days later.

[3] = system: patient with corticobasal syndrome; assay: Case study, clinical examination; conditions: Ex. 10, corticobasal syndrome
Description: Gait analysis was performed before treatment commenced. After 20 days of acetyl-leucine treatment, the patient was re-examined. […] After 8 weeks of acetyl-leucine treatment, medication was stopped and the patient was re-examined 6 days later.

[4] = system: patients with progressive supranuclear palsy; assay: Case studies, clinical examination
Description: After 27 days of acetyl-leucine treatment, medication was stopped and the patient was re-examined 60 days later. […] Gait analysis was performed before treatment commenced. After 17 days of treatment, medication was stopped and the patient was re-examined 4 days later. […] Gait analysis was performed before treatment commenced. After three weeks of treatment, medication was stopped and the patient was re-examined.

[5] = system: patients with multiple system atrophy Parkinson type (MSA-P); assay: Case studies, clinical examination
Source text: Medication was stopped. […] The patient evaluated after one month on acetyl-DL-leucine. […] Episodes of mental confusion completely disappeared. The patient's cognitive structure seemed much clearer and straighter. […] The patient's spouse supported continuing the medication.

[6] = system: patient with Lewy Body dementia; assay: Case study, clinical evaluation; conditions: Ex. 17, Lewy Body dementia; Levodopa 100 mg 4× daily and Quetiapin 25 mg at night together
Description: The patient started taking acetyl-leucine (3 g/day for one week; 5 g/day thereafter) and was evaluated after four weeks. […] Medication was reduced to 3 g/day, and the patient was instructed to stop medication about two weeks later.

[7] = system: patients with amyotrophic lateral sclerosis (ALS); assay: Case studies, medical examination; conditions: Ex. 7 Patient 1, ALS; before acetyl-DL-leucine
Source text: The results were documented by video.

SMILES: Nc1ccncc1 [4-aminopyridine]
- response to treatment ([1]; Ex. 12 Patient 1, downbeat nystagmus, 10 mg twice daily for four weeks): did not give rise to any benefit
- response to treatment ([1]; Ex. 12 Patient 2, downbeat nystagmus): did not benefit

SMILES: N[C@@H](Cc1ccc(O)c(O)c1)C(=O)O [L-Dopa]
- response to treatment [2]: little improvement
- response to treatment [3]: no improvement
- response to treatment ([4]; Ex. 11 Patient 1, progressive supranuclear palsy): little improvement
- response to treatment ([4]; Ex. 11 Patient 2, PSP): no levodopa response
- response to treatment ([4]; Ex. 11 Patient 3, PSP): no levodopa response
- response to treatment ([4]; Ex. 11 Patient 4, PSP): slight levodopa response
- response to treatment ([5]; Ex. 13 Patient 1, MSA-P, 100/25 mg 3× daily): discreet Levodopa response
- tolerability ([5]; Ex. 13 Patient 3, MSA-P): suspended due to side effects
- response to treatment [6]: improved the symptomatology

SMILES: OCCOCCN1CCN(C2=Nc3ccccc3Sc3ccccc32)CC1 [Quetiapin]
- response to treatment [6]: improved the symptomatology

SMILES: Nc1nc2ccc(OC(F)(F)F)cc2s1 [Riluzol]
- clinical symptomatology [7]: clinical symptomatology remained unchanged

SMILES: CCCN(CCC)CCc1cccc2c1CC(=O)N2 [Ropinirol]
- response to treatment [2]: little improvement
